# In patent US7667022B2, “Promoter for high-throughput screening for inhibitors against Mycobacteria under low carbon conditions” (Council of Scientific & Industrial Research, priority 2003, dated 2010):
# Test system: Mycobacterium smegmatis, mc^2155
# Experiment: Percent inhibition of growth of liquid culture (optical density vs control without antibiotic) at 2% or 0.02% glucose
# Assay type: cell-based
# Settings: for % inhibition of growth at 0.02% Glucose: 0.02% Glucose (starved)
smiles,measurement,setting,value
CO[C@H]1/C=C/O[C@@]2(C)Oc3c(C)c(O)c4c(O)c(c(/C=N/N5CCN(C)CC5)c(O)c4c3C2=O)NC(=O)/C(C)=C\C=C\[C@H](C)[C@H](O)[C@@H](C)[C@@H](O)[C@@H](C)[C@H](OC(C)=O)[C@@H]1C [Rifampicin],% inhibition of growth at 0.02% Glucose,0.25 μgm/ml,9%
same,% inhibition of growth at 2% Glucose,0.25 μgm/ml,39%
same,% inhibition of growth at 0.02% Glucose,0.5 μgm/ml,17%
same,% inhibition of growth at 2% Glucose,0.5 μgm/ml,58%
same,% inhibition of growth at 0.02% Glucose,1.0 μgm/ml,29%
same,% inhibition of growth at 2% Glucose,1.0 μgm/ml,70%
same,% inhibition of growth at 0.02% Glucose,2.0 μgm/ml,68%
same,% inhibition of growth at 2% Glucose,2.0 μgm/ml,89%
same,reduction of inhibition of growth in the presence of the promoter under a stationary or a starved state,stationary or starved state,about 20%
NNC(=O)c1ccncc1 [Isoniazide],% inhibition of growth at 0.02% Glucose,0.8 μgm/ml,12%
same,% inhibition of growth at 2% Glucose,0.8 μgm/ml,33%
same,% inhibition of growth at 0.02% Glucose,1.6 μgm/ml,30%
same,% inhibition of growth at 2% Glucose,1.6 μgm/ml,70%
same,% inhibition of growth at 0.02% Glucose,3.2 μgm/ml,70%
same,% inhibition of growth at 2% Glucose,3.2 μgm/ml,90%
same,% inhibition of growth at 0.02% Glucose,6.4 μgm/ml,78%
same,% inhibition of growth at 2% Glucose,6.4 μgm/ml,96%
CC[C@@H](CO)NCCN[C@@H](CC)CO [Ethambutol],% inhibition of growth at 0.02% Glucose,0.15 μgm/ml,37%
same,% inhibition of growth at 2% Glucose,0.15 μgm/ml,44%
same,% inhibition of growth at 0.02% Glucose,0.31 μgm/ml,66%
same,% inhibition of growth at 2% Glucose,0.31 μgm/ml,85%
same,% inhibition of growth at 0.02% Glucose,0.63 μgm/ml,68%
same,% inhibition of growth at 2% Glucose,0.63 μgm/ml,91%
same,% inhibition of growth at 0.02% Glucose,1.25 μgm/ml,72%
same,% inhibition of growth at 2% Glucose,1.25 μgm/ml,93%
